In PubChem BioAssay (NCI):
Several values for one entry are separate records, joined by “and”; a condition that tells them apart may be missing. Identical values can stand only once.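 Tested at 5 concentrations; 48 h exposure; 96-well plates; endpoints linearly interpolated, else capped at highest concentration. At the GI50, growth is halved. At the TGI there is no net growth.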

Key:
Assay in all cases: inhibition of tumour cell growth, NCI panel, 48 h
CAKI-1 renal = tested on: CAKI-1 renal
EKVX NSCLC = tested on: EKVX NSCLC
HCT-116 colon = tested on: HCT-116 colon
NCI-H460 lung = tested on: NCI-H460 lung
OVCAR-4 ovarian = tested on: OVCAR-4 ovarian
PC-3 prostate = tested on: PC-3 prostate
RXF 393 renal = tested on: RXF 393 renal
SF-295 CNS = tested on: SF-295 CNS
SNB-19 CNS = tested on: SNB-19 CNS
SR leukemia = tested on: SR leukemia

N=C(N)c1ccc(-c2ccc(-c3ccc(F)cc3)o2)o1
GI50 (CAKI-1 renal): 1.71 µM
TGI (CAKI-1 renal): 3.56 µM
GI50 (EKVX NSCLC): 1.35 µM
TGI (EKVX NSCLC): 3.18 µM
GI50 (HCT-116 colon): 1.18 µM
TGI (HCT-116 colon): 2.59 µM
GI50 (NCI-H460 lung): 1.76 µM
TGI (NCI-H460 lung): 3.36 µM
GI50 (OVCAR-4 ovarian): 1.62 µM
TGI (OVCAR-4 ovarian): 3.2 µM
GI50 (PC-3 prostate): 1.22 µM
TGI (PC-3 prostate): 2.57 µM
GI50 (RXF 393 renal): 1.6 µM
TGI (RXF 393 renal): 3.4 µM
GI50 (SF-295 CNS): 1.51 µM
TGI (SF-295 CNS): 3.05 µM
GI50 (SNB-19 CNS): 1.73 µM
TGI (SNB-19 CNS): 4.05 µM

O=C1CC/C(=C\COc2ccc3ccc(=O)oc3c2)O1
GI50 (CAKI-1 renal): 1.97 µM
TGI (CAKI-1 renal): 20.6 µM
GI50 (EKVX NSCLC): 16.7 µM
TGI (EKVX NSCLC): 46.4 µM
GI50 (HCT-116 colon): 6.25 µM
TGI (HCT-116 colon): 22.8 µM
GI50 (NCI-H460 lung): 16.8 µM
TGI (NCI-H460 lung): > 100 µM
GI50 (OVCAR-4 ovarian): 4.78 µM
TGI (OVCAR-4 ovarian): 23.7 µM
GI50 (PC-3 prostate): 1.68 µM
TGI (PC-3 prostate): 18.3 µM
GI50 (RXF 393 renal): 8.41 µM
TGI (RXF 393 renal): 31.9 µM
GI50 (SF-295 CNS): 43.5 µM
TGI (SF-295 CNS): > 100 µM
GI50 (SNB-19 CNS): 13.2 µM
TGI (SNB-19 CNS): 36.8 µM

O=[N+]([O-])c1cccc(-c2cc(-c3cc(Br)ccc3O)[nH]n2)c1
GI50 (CAKI-1 renal): 1.81 µM
TGI (CAKI-1 renal): 5.17 µM
GI50 (EKVX NSCLC): 2 µM
TGI (EKVX NSCLC): 7.91 µM
GI50 (HCT-116 colon): 1.46 µM
TGI (HCT-116 colon): 2.86 µM
GI50 (NCI-H460 lung): 1.9 µM
TGI (NCI-H460 lung): 10.4 µM
GI50 (OVCAR-4 ovarian): 3.45 µM
TGI (OVCAR-4 ovarian): 17.3 µM
GI50 (PC-3 prostate): 3.48 µM
TGI (PC-3 prostate): 7.7 µM
GI50 (SNB-19 CNS): 3.26 µM
TGI (SNB-19 CNS): 12.3 µM
GI50 (SR leukemia): 1.66 µM
TGI (SR leukemia): 4.8 µM

COc1ccc(-c2csc3c2-n2cccc2C3=O)cc1O
GI50 (CAKI-1 renal): 0.0497 µM
TGI (CAKI-1 renal): > 63.2 µM
GI50 (HCT-116 colon): 0.0271 µM
TGI (HCT-116 colon): 17 µM
GI50 (NCI-H460 lung): 0.0375 µM
TGI (NCI-H460 lung): 13.1 µM
GI50 (OVCAR-4 ovarian): 0.579 µM
TGI (OVCAR-4 ovarian): > 100 µM
GI50 (PC-3 prostate): 0.265 µM
TGI (PC-3 prostate): > 100 µM
GI50 (SF-295 CNS): 0.5 µM
TGI (SF-295 CNS): > 100 µM
GI50 (SNB-19 CNS): 3.44 µM
TGI (SNB-19 CNS): > 100 µM
GI50 (SR leukemia): < 0.01 µM
TGI (SR leukemia): 31.9 µM

O=C1OCC2=C1C(c1cccc(C(F)(F)F)c1)c1cc3c(cc1N2CCO)CCC3 (stereo unspecified)
GI50 (CAKI-1 renal): 0.174 µM
TGI (CAKI-1 renal): 7.46 µM
GI50 (EKVX NSCLC): 0.278 µM
TGI (EKVX NSCLC): 9.52 µM
GI50 (HCT-116 colon): 0.175 µM
TGI (HCT-116 colon): 6.55 µM
GI50 (NCI-H460 lung): 0.167 µM
TGI (NCI-H460 lung): 5.4 µM
GI50 (OVCAR-4 ovarian): 1.05 µM
TGI (OVCAR-4 ovarian): 11.2 µM
GI50 (PC-3 prostate): 0.194 µM
TGI (PC-3 prostate): 7.56 µM
GI50 (RXF 393 renal): 0.145 µM
TGI (RXF 393 renal): 8.38 µM
GI50 (SF-295 CNS): 0.138 µM
TGI (SF-295 CNS): 6.21 µM
GI50 (SNB-19 CNS): 0.215 µM
TGI (SNB-19 CNS): 8.8 µM

Cc1c(O)c(=O)ccn1CCO
TGI (CAKI-1 renal): > 100 µM
TGI (EKVX NSCLC): > 100 µM
TGI (HCT-116 colon): > 100 µM
TGI (NCI-H460 lung): > 100 µM
TGI (OVCAR-4 ovarian): > 100 µM
TGI (RXF 393 renal): > 100 µM
TGI (SF-295 CNS): > 100 µM
TGI (SNB-19 CNS): > 100 µM
TGI (SR leukemia): > 100 µM

Cc1ccc2[nH]c(C(=O)NN3C(=O)C(C)SC34CCCCC4C)c(-c3ccccc3)c2c1 (stereo unspecified)
GI50 (CAKI-1 renal): 17 µM
TGI (CAKI-1 renal): 40.7 µM
GI50 (EKVX NSCLC): 24.5 µM
TGI (EKVX NSCLC): 61.9 µM
GI50 (HCT-116 colon): 17.4 µM
TGI (HCT-116 colon): 35.6 µM
GI50 (NCI-H460 lung): 22 µM
TGI (NCI-H460 lung): 58.5 µM
GI50 (OVCAR-4 ovarian): 15.9 µM
TGI (OVCAR-4 ovarian): 36.1 µM
GI50 (PC-3 prostate): 15.3 µM
TGI (PC-3 prostate): 37.6 µM
GI50 (RXF 393 renal): 0.415 µM
TGI (RXF 393 renal): 21.1 µM
GI50 (SF-295 CNS): 17.8 µM
TGI (SF-295 CNS): 35.5 µM
GI50 (SNB-19 CNS): 27 µM
TGI (SNB-19 CNS): 77.5 µM

C=CCN(CC=C)CC(C(C)=O)C(c1ccccc1)c1c(O)c2ccccc2oc1=O (stereo unspecified)
TGI (CAKI-1 renal): > 100 µM
TGI (EKVX NSCLC): > 100 µM
TGI (HCT-116 colon): > 100 µM
TGI (OVCAR-4 ovarian): > 100 µM
TGI (RXF 393 renal): > 100 µM
TGI (SF-295 CNS): 95.8 µM
TGI (SNB-19 CNS): > 100 µM
TGI (SR leukemia): > 100 µM

O=C(O)c1ccc(C2C3C=CC(C3)C2[N+](=O)[O-])cc1 (stereo unspecified)
TGI (CAKI-1 renal): > 100 µM
TGI (EKVX NSCLC): > 100 µM
TGI (NCI-H460 lung): > 100 µM
TGI (RXF 393 renal): > 100 µM
TGI (SF-295 CNS): > 100 µM
TGI (SNB-19 CNS): > 100 µM

Cn1c(=O)oc2cc(C3CCC(=O)N3Cc3ccc(Cl)cc3)ccc21 (stereo unspecified)
TGI (CAKI-1 renal): > 100 µM
TGI (EKVX NSCLC): > 100 µM
TGI (HCT-116 colon): > 100 µM
TGI (NCI-H460 lung): > 100 µM
TGI (OVCAR-4 ovarian): > 100 µM
TGI (RXF 393 renal): > 100 µM
TGI (SF-295 CNS): > 100 µM
TGI (SNB-19 CNS): > 100 µM
TGI (SR leukemia): > 100 µM

COc1ccc(-c2cc(-c3nnc(SCC(=O)Nc4ccc(C(C)=O)cc4)o3)c3ccccc3n2)cc1
GI50 (EKVX NSCLC): > 100 µM
TGI (EKVX NSCLC): > 100 µM
GI50 (HCT-116 colon): 2.9 µM
TGI (HCT-116 colon): > 100 µM
GI50 (NCI-H460 lung): > 100 µM
TGI (NCI-H460 lung): > 100 µM
GI50 (PC-3 prostate): > 100 µM
TGI (PC-3 prostate): > 100 µM
GI50 (RXF 393 renal): 18.1 µM
TGI (RXF 393 renal): 57.5 µM
GI50 (SF-295 CNS): 26.4 µM
TGI (SF-295 CNS): > 100 µM
GI50 (SNB-19 CNS): 12.6 µM
TGI (SNB-19 CNS): > 100 µM

COc1ccccc1NC(=O)C1=C(C)NC(C)=C(C(=O)Nc2ccccc2OC)C1c1cccc2c1OCO2
TGI (CAKI-1 renal): > 100 µM
TGI (EKVX NSCLC): > 100 µM
TGI (HCT-116 colon): > 100 µM
TGI (NCI-H460 lung): > 100 µM
TGI (OVCAR-4 ovarian): > 100 µM
TGI (SF-295 CNS): > 100 µM
TGI (SNB-19 CNS): > 100 µM
TGI (SR leukemia): > 100 µM

O=C(O)CCCNS(=O)(=O)c1ccc2ccccc2c1
TGI (CAKI-1 renal): > 100 µM
TGI (EKVX NSCLC): > 100 µM
TGI (NCI-H460 lung): > 100 µM
TGI (OVCAR-4 ovarian): > 100 µM
TGI (RXF 393 renal): > 100 µM
TGI (SF-295 CNS): > 100 µM
TGI (SNB-19 CNS): > 100 µM

CC(=O)OC12CC(C)C3(O)C4C=C(C)C(=O)[C@@]4(O)CC(CO)=C[C@H]3C1C2(C)C (stereo partly specified)
GI50 (EKVX NSCLC): > 1000 µM
TGI (EKVX NSCLC): > 1000 µM
GI50 (HCT-116 colon): > 1000 µM
TGI (HCT-116 colon): > 1000 µM
GI50 (OVCAR-4 ovarian): > 1000 µM
TGI (OVCAR-4 ovarian): > 1000 µM
GI50 (PC-3 prostate): 0.228 µM
TGI (PC-3 prostate): > 1000 µM
GI50 (SNB-19 CNS): > 1000 µM
TGI (SNB-19 CNS): > 1000 µM
GI50 (SR leukemia): > 1000 µM
TGI (SR leukemia): > 1000 µM

COc1cc(OC)cc(-c2cncn2-c2ccc(-c3nc4cc(OC)cc(OC)c4s3)cc2)c1
GI50 (CAKI-1 renal): 2.13 µM
TGI (CAKI-1 renal): > 100 µM
GI50 (HCT-116 colon): 4.94 µM
TGI (HCT-116 colon): > 100 µM
GI50 (NCI-H460 lung): 4.41 µM
TGI (NCI-H460 lung): > 100 µM
GI50 (RXF 393 renal): 6.58 µM
TGI (RXF 393 renal): > 100 µM
GI50 (SF-295 CNS): 2.4 µM
TGI (SF-295 CNS): 43.1 µM
GI50 (SNB-19 CNS): > 100 µM
TGI (SNB-19 CNS): > 100 µM
GI50 (SR leukemia): 3.3 µM
TGI (SR leukemia): > 100 µM

CCOC(=O)c1cnc2cc3cccccc3n2c1=O
TGI (CAKI-1 renal): > 100 µM
TGI (EKVX NSCLC): > 100 µM
TGI (HCT-116 colon): > 100 µM
TGI (NCI-H460 lung): > 100 µM
TGI (OVCAR-4 ovarian): > 100 µM
TGI (RXF 393 renal): > 100 µM
TGI (SF-295 CNS): > 100 µM
TGI (SNB-19 CNS): > 100 µM
TGI (SR leukemia): > 100 µM

CC1(C)N[P+]2(Nc3ccccc3O2)OC1=O (stereo unspecified)
TGI (CAKI-1 renal): > 100 µM
TGI (EKVX NSCLC): > 100 µM
TGI (HCT-116 colon): > 100 µM
TGI (NCI-H460 lung): > 100 µM
TGI (OVCAR-4 ovarian): > 100 µM
TGI (PC-3 prostate): > 100 µM
TGI (RXF 393 renal): > 100 µM
TGI (SF-295 CNS): > 100 µM
TGI (SNB-19 CNS): > 100 µM

CCCCCCCCCCCCCCCCn1cc[n+](Cc2ccccc2)c1C
GI50 (EKVX NSCLC): 0.703 µM
TGI (EKVX NSCLC): 2.28 µM
GI50 (NCI-H460 lung): 0.479 µM
TGI (NCI-H460 lung): 1.8 µM
GI50 (OVCAR-4 ovarian): 0.451 µM
TGI (OVCAR-4 ovarian): 4.55 µM
GI50 (RXF 393 renal): 0.0122 µM
TGI (RXF 393 renal): 0.341 µM
GI50 (SF-295 CNS): 0.866 µM and 0.263 µM
TGI (SF-295 CNS): 2.28 µM and 1.22 µM
GI50 (SNB-19 CNS): 0.565 µM
TGI (SNB-19 CNS): 2.01 µM
